We go through 2 molecules from patent US20200362314A1, “METHODS TO PRODUCE ADULT-LIKE CARDIOMYOCYTES DERIVED FROM INDUCED PLURIPOTENT STEM CELLS FOR DRUG DISCOVERY” (THE REGENTS OF THE UNIVERSITY OF COLORADO, A BODY CORPORATE, priority 2019, published 2020).

Experiment [1] has as its system adult cardiomyocytes. As to conditions: in vitro, typical response; cited from earlier work.
Experiment [2] deals with hiPSC-CMs. The experiment is described as follows: Hypertrophic response (cell area) of hiPSC-CMs. The class given is cell-based, human. As to conditions: for increase in cell area: vs vehicle. How it is done:
Panels A-B show an image and graph, respectively, depicting hiPSC-CMs cultured under indication conditions and treated with vehicle, 10 μM phenylephrine (PE) or 10 μM PE and 1 μM JQ-1 (a BET Bromodomain inhibitor) for 48 hours, then fixed and stained for α-actinin (green) and Hoescht 3342 (blue). Representative images are shown in panel A. Cell area of hiPSC-CMs were quantified in panel B. Cell areas measured on 616-789 cardiomyocytes pooled from four independent inductions. Panel C is a graph depicting qPCR for B-type natriuretic peptide, normalized to 18S rRNA and shown as fold change relative to GLUC, from cDNA prepared from four independent inductions. Panels D-F depict data showing characterization of cardiac hypertrophy in Danon hiPSC-CMs under various culture conditions, and their comparison to the hypertrophy observed in human patients. In Panel D, hypertrophy (as assessed by left ventricular posterior wall thickness, LVPW) in the hearts of human patients is shown. […] Cell areas measured on 356-1056 cardiomyocytes pooled from two independent inductions. *, **, **** p<0.05, 0.01, 0.0001, Kruskal-Wallis test followed by Dunn's multiple comparison test (B,D) or one way ANOVA followed by Tukey's multiple comparison test on log2 transformed data (C).
Cell imaging studies: Cells on small unpatterned or patterned surfaces in 24 well plates were used for immunofluorescent staining. Briefly, cells were washed with PBS, then fixed either with 4% paraformaldehyde (PFA) in PBS (10 minutes at room temperature) or a 1:1 mixture of methanol and acetone (5minutes at -20° C.). After fixation, cells were washed with PBS, then permeabilized with 0.2% Triton-X 100 in PBS (10 minutes at room temperature). Methanol/acetone fixation was used for images shown in FIG. 1 (staining for α-actinin, MYBPC3, c-TNI, and MLC-2V). PFA fixation was used for all other experiments. All measurements of cell area and hypertrophy were conducted on PFA fixed cells.
For cell area measurements, cells were PFA fixed and stained for α-actinin as described above, then counterstained with HCS CellMask™ Orange (Thermo Fisher Scientific, Waltham, Mass.), diluted 1:2, 500 in PBS, for 30 minutes at room temperature.
All imaging was conducted on an EVOS FL Cell Imaging System (Thermo Fisher Scientific, Waltham, MA). All image analysis including measurements of cell area, circularity, and sarcomere length were conducted using Image J.

Experiment [3] concerns neonatal cardiomyocytes. As to conditions: in vitro; cited from earlier work.
The test system of experiment [4] is myofibrils from AMVCMs. The experiment is described as follows: Myofibril mechanics of AMVCMs. The class given is cell-based, mouse. Here is the method: Myofibril mechanics data from AMVCMs isolated from 8-12 week old adult mice and treated with vehicle or 10 μM PE for 72 hours before myofibril isolation. Note that rodent myofibrils display profoundly faster kinetics of both activation and relaxation at baseline compared to myofibrils from human hiPSC-CMs and cardiac tissue. *, p<0.05, Student t test. 21-26 myofibrils were isolated from three separate cardiomyocyte isolations. A complete table of myofibril mechanics data on AMVCMs can be seen in Table 6.
Cardiomyocyte Isolation: 15 minutes prior to beginning isolation, mice were injected with 300 μL of heparin (10,000 units/mL). Mice were then anesthetized via inhalation of isofluorane, and when becoming unresponsive to toe pinch were killed via cervical dislocation. The chest was then opened, and the heart was removed rapidly and placed in ice-cold perfusion buffer (10 mM creatine monohydrate, 30 mM Taurine, 5.6 mM Dglucose, 4.6 mM NaHCO3, 10 mM BDM, 120 mM NaCl, 15 mM KCl, 0.6 mM Na2HPO4, 0.6 mM KH2PO4, 1.2 mM MgSO4, 10 mM Hepes, filtered at 0.40 μm, pH 7.4). The heart was washed briefly in perfusion buffer, and excess fat/thymus tissue trimmed off. The aorta was then cannulated using a blunted 20-gauge needle, and was mounted on a Langendorff apparatus (Radnoti, Covina, Calif.) with a heating pump kept at 37° C. for the duration of the isolation (VWR International, Radnor, Pa.). Hearts were mounted on the Langendorff apparatus within 3-7 minutes of removing from the body. The heart was then perfused in retrograde fashion at a rate of 4 mL/minute, driven by a Rainin™ Rabbit peristaltic pump (Mettler Toledo, Columbus, Ohio). To remove blood from the heart's vessels, it was first perfused for 3 min using perfusion buffer. Buffer was then switched to calcium-free digestion buffer (perfusion buffer with 1.3 mg/mL collagenase II) for 3 min and was then switched to digestion buffer supplemented with […] CaCl2. Hearts were perfused with high-calcium digestion buffer for another 6 to 10 minutes, once the heart became extremely soft and compliant. The heart was then removed from the cannulating needle and placed in a 60 mm culture dish with 2.5 mL high-calcium digestion buffer. The atria and right ventricle were then removed, and the left ventricle dissociated using a pipette and forceps. Once the heart was completely dissociated, digestion was halted by the addition of 7.5 mL stopping buffer (perfusion buffer with 10% (vol/vol) FBS and […] CaCl2). The cardiomyocyte suspension was then filtered through 200-μm mesh into a 50-mL conical tube, and the culture dish washed with an additional 10 mL stopping buffer, which was then filtered into the conical tube as well. This cell suspension was then allowed to incubate for 10 minutes at room temperature, allowing a cardiomyocyterich pellet to form. The fibroblast-rich supernatant was discarded, while the pellet with was resuspended in 10 mL of stopping buffer. 100 mM CaCl2 solution was then added to this buffer in a stepwise manner, with 2-min intervals between each addition: calcium concentration was first increased to 112.5 μmol/L, then to 312.5 μmol/L, then 712.5 μmol/L, and finally to 1.4 mmol/L. The cell suspension was then centrifuged at 1,000×g for 3 min at room temperature. Cells were then inspected and counted, and if <60% of myocytes were rod-shaped (viable) the cells were not used for experimentation. Cardiomyocytes were then resuspended in plating medium [perfusion buffer with 2.5% (vol/vol) FBS, 1% (vol/vol) penicillin/streptomycin (P/S), and 1.4 mM CaCl2, and plated on either 6 well plates (for myofibril mechanics) or 24 well plates (for hypertrophy imaging) coated with 9-10 μg/mL Laminin. […]

In experiment [5] the test system is adult mouse ventricular cardiomyocytes (AMVCMs). The experiment is described as follows: Hypertrophic response (cell area) of adult mouse ventricular cardiomyocytes. In kind it is cell-based. How it is done:
(§1) Panels A-B show representative images of BNP staining and quantification of BNP and pro-NT-BNP-positive hiPSC-CMs cultured and treated as described in FIGS. 12A-B. Panels C-D show representative brightfield images and cell area of AMVCMs under indicated conditions. AMVCMs were isolated from 8-12 week old adult mice then treated with vehicle, 10 μM phenylephrine (PE) or 10 μM PE and 1 μM JQ-1 for 72 hours, then fixed. **** p<0.0001, Kruskal-Wallis test followed by Dunn's multiple comparison test. Cell areas measured on 664-706 cardiomyocytes pooled from four separate cardiomyocyte isolations.
Cardiomyocyte Isolation: 15 minutes prior to beginning isolation, mice were injected with 300 μL of heparin (10,000 units/mL). Mice were then anesthetized via inhalation of isofluorane, and when becoming unresponsive to toe pinch were killed via cervical dislocation. The chest was then opened, and the heart was removed rapidly and placed in ice-cold perfusion buffer (10 mM creatine monohydrate, 30 mM Taurine, 5.6 mM Dglucose, 4.6 mM NaHCO3, 10 mM BDM, 120 mM NaCl, 15 mM KCl, 0.6 mM Na2HPO4, 0.6 mM KH2PO4, 1.2 mM MgSO4, 10 mM Hepes, filtered at 0.40 μm, pH 7.4). The heart was washed briefly in perfusion buffer, and excess fat/thymus tissue trimmed off. […] Cells were then inspected and counted, and if <60% of myocytes were rod-shaped (viable) the cells were not used for experimentation. […]

In experiment [6] the test system is myofibrils from MPAT hiPSC-CMs. The experiment in a line: Myofibril mechanics of MPAT hiPSC-CMs. In kind it is cell-based, human. From the text:
FIG. 13 is graphs showing results that indicate that phenylephrine treatment induces changes in myofibril relaxation which are similar to those observed in human hypertrophic cardiomyopathy. […] Myofibrils were isolated from 4 donor and 4 HCM hearts, with at least 6 myofibrils isolated per heart. […] 44-45 myofibrils isolated per condition, pooled from 3 independent inductions. Complete tables of myofibril data from these experiments are available in Tables 4 and 5. *, **, **** p<0.05, 0.01, 0.0001, Student's t test on log2-transformed data.
To isolate myofibrils from adult mouse cardiomyocytes and stem cell derived cardiomyocytes, cells were lysed and myofibrils prepared using an adaption from a recently described method. In brief, cells were lysed in relaxing solution with protease inhibitors and 20% (w/vol) sucrose, using a scraper. The lysed cell solution was then transferred into a microfuge tube and incubated on ice for 10 minutes with periodic vortexing. The cell/myofibril solution was then centrifuged at 1,500 g for 5 minutes at 4° C., and the cell/myofibril pellet resuspended in fresh relaxing solution with protease inhibitors. This process was repeated twice to remove any residual sucrose, and the cell/myofibril solution was then homogenized.
Myofibril mechanics were quantified using the fast solution switching technique on a custom-built experimental rig. Myofibril suspensions were plated onto a temperature controlled glass coverslip (15° C.) containing relaxing solution. Single myofibrils and myofibril bundles were then picked up from the surface of this coverslip and mounted between two glass micro-tools. One tool, the stretcher, was linked to a motor which could produce rapid changes in length (Mad City Labs, Madison, Wis.), while the second tool was a calibrated cantilevered force probe (6-8 μm/μN; frequency response 2-5 KHz), which was colored with black ink to increase probe sensitivity. After mounting myofibrils between microtools, they were stretched to 5-10% above slack myofibril length. Average sarcomere lengths and myofibril diameters were measured using ImageJ software. Mounted myofibrils were then activated and relaxed by rapidly changing the position of a double-barreled pipette simultaneously releasing activating solution (pCa 4.5) and relaxing solution (pCa 9.0) from each barrel. By rapidly changing the position of the pipette, the mounted myofibril could be induced to activate and relax. From the activation/relaxation trace produced, the following parameters were acquired: resting tension, the passive tension produced in relaxing conditions, induced by a push on the stretcher; maximum tension (mN/mm2), the greatest level of active tension generated by the myofibril at full calcium activation (pCa 4.5); activation kinetics (kAct), the rate constant of tension development following myofibril activation; reactivation kinetics (kTr), the rate constant of tension redevelopment following myofibril release/stretch to break cross bridges; slow phase relaxation kinetics (kREL,SLOVV), the kinetics of the initial slow/linear phase of myofibril relaxation, slow phase relaxation time (TLIN), the duration of the slow phase of relaxation, from the switching of the pipette to relaxing solution to the beginning of the fast phase of relaxation; fast phase relaxation kinetics (kREL,FAST), the rate constant of the fast (exponential) phase of relaxation.

Experiment [7] relates to hiPSC-CMs. The experiment in a line: BNP / pro-NT-BNP immunofluorescent staining of hiPSC-CMs. In kind it is cell-based, human. As to conditions: GLUC hiPSC-CMs; 10 μM PE, 48 hours. Here is the method:
as §1
For B-type natriuretic peptide (BNP) staining, an adaption of a previously published method was used: cells were PFA fixed, then blocked and permeabilized for 30 minutes with 5% milk/0.1% Triton X-100/PBS (blocking solution) for 30 minutes at room temperature. Cells were then incubated with pro-BNP antibody diluted in blocking solution overnight at 4° C. Cells were then washed four times in 0.05% Triton-X 100/PBS for 5 minutes, and incubated with secondary antibody diluted in blocking solution for hour at room temperature. Cells were then washed twice in 0.05% Triton-X 100/PBS for 5 minutes, counterstained with Hoescht 3342 as described above, and washed twice more.
All imaging was conducted on an EVOS FL Cell Imaging System (Thermo Fisher Scientific, Waltham, MA). […]

Experiment [8] relates to adult rat cardiac (ARVM) myofibrils. To be noted: 48 hours of PE treatment; cited from earlier work.
Setting [9] is: MPAT hiPSC-CMs, 10 μM PE, 48 hours, mean ± SEM.

“Also recorded” adds a separate entry of the source. Marks after values point to notes of the source that are not given here.

In the case of `CNC[C@H](O)c1cccc(O)c1` [PE, phenylephrine], in experiment [1], the “increase in cell area” value was 10-30%. Further, the “increase in cell area” value in experiment [2] (MM hiPSC-CMs, 10 μM PE, 48 hours) is 29%. Further, the “increase in cell area” value in experiment [2] (MPAT hiPSC-CMs, 10 μM PE, 48 hours) came out at 19%. Besides, the “effect on cell area” value in experiment [2] (hiPSC-CMs cultured in glucose-containing medium (GLUC), 10 μM PE, 48 hours) is “no effect; also recorded: no hypertrophic response”. Also, the “increase in cell area” value in experiment [3] is reported as 50-100%. In experiment [4] (10 μM PE, 72 hours, mean ± SEM), the Max. tens. is 68.55 ± 6.39 mN/mm^2; the Rest. tens. amounted to 6.94 ± 1.07 mN/mm^2; the kACT stood at 4.45 ± 0.33 s⁻¹; the “kREL, FAST” value came to 36.61 ± 4.59 s⁻¹. Besides, in experiment [4] (10 μM PE, 72 hours, mean ± SEM), the “kREL, SLOW” value came to 1.83 ± 0.32 s⁻¹; the kTR is 3.12 ± 0.30 s⁻¹; the tLIN was 45.83 ± 2.58* mSec. For the same molecule, the “shortening of linear phase of relaxation” value in experiment [4] (PE vs PBS (Table 6)) was roughly 10 ms. In addition, the “increase in cell area” value in experiment [5] (10 μM PE, 72 hours) stood at 16%. In experiment [6] (setting [9]), the Max. tens. is 44.04 ± 5.05 mN/mm^2; the Rest. tens. came to 6.15 ± 0.90 mN/mm^2; the kACT stood at 1.03 ± 0.08 s⁻¹; the “kREL, FAST” value is listed as 8.64 ± 0.77* s^−1. Also, in experiment [6] (setting [9]), the “kREL, SLOW” value worked out at 0.58 ± 0.12 s⁻¹; the kTR was found to be 0.80 ± 0.06 s⁻¹; the tLIN is recorded as 113.6 ± 6.2**** mSec. Further, the “shortening of linear phase of relaxation” value in experiment [6] (hiPSC-CMs, PE vs vehicle (Table 5)) is “more than 80 msec”. The “cells staining positive for BNP expression” value in experiment [7] is “not increased”. In addition, in experiment [8], the “effect on myofibril calcium sensitivity” value was “increased myofibril calcium sensitivity” and the “effect on the kinetics of myofibril activation or relaxation” value was “no effect”.
Regarding `Cc1sc2c(c1C)C(c1ccc(Cl)cc1)=N[C@@H](CC(=O)OC(C)(C)C)c1nnc(C)n1-2` [JQ-1], the “effect on cell area” value in experiment [2] (GLUC hiPSC-CMs, 10 μM PE and 1 μM JQ-1, 48 hours) is reported as “profoundly reduced cell area; also recorded: reduced cell area significantly beyond baseline”. The “reduction of cell area relative to PE-treated cells” value in experiment [2] (MM hiPSC-CMs, 10 μM PE and 1 μM JQ-1, 48 hours) stood at 17%; in experiment [2] (MPAT hiPSC-CMs, 10 μM PE and 1 μM JQ-1, 48 hours), 31%. The “decrease in cell area” value in experiment [5] (10 μM PE and 1 μM JQ-1, 72 hours) was determined as 11%.
